Values of other authors as cited in US20020037899A1, “Compositions containing an inhibitor of dihydrofolate reductase and a folate” (priority 2000, published 2002).

Assays:
[1] = test system: rheumatoid arthritis patients receiving methotrexate; conditions: for reduction in mucosal and gastrointestinal side effect: folic acid or folinic acid administered to rheumatoid arthritis patients receiving methotrexate
[2] = not given; remark: listed apart in the source

Row | solubility in water [mg per ml] | stable to heating at temperatures [2] | Compound | reduction in mucosal and gastrointestinal side effect [1] [%] | effect on disease symptoms such as painful joints ([1]; high dosages of folinic acid, rheumatoid arthritis patients receiving methotrexate)
1 |  |  | Nc1nc(=O)c2c([nH]1)NCC(CNc1ccc(C(=O)N[C@@H](CCC(=O)O)C(=O)O)cc1)N2C=O (mixture of isomers) [folinic acid] | 79 | increase in disease symptoms
2 | 1.6 | below 200 °C | Nc1nc2ncc(CNc3ccc(C(=O)N[C@@H](CCC(=O)O)C(=O)O)cc3)nc2c(=O)[nH]1 [folic acid] | 79 | 
